Assay results: patent US20200230205A1, “COMPOSITIONS AND METHODS FOR TREATING MYELIN DISORDERS” (CASE WESTERN RESERVE UNIVERSITY, priority 2017, published 2020)

Assays:
aggrecan (CS56) = assay: CSPG degradation by OPC conditioned media (CS56 spot quantification and western blot of aggrecan); assay type: cell-based, mouse; settings: for aggrecan GAG digestion (CS56 immunoblot): Exo1 10 μg/mL, GM6001 25 μM or OA-Hy 100 nM with 2.5 μM ISP
Experimental: (§1) CSPG gradients were prepared as described previously (Tom, V. J., et al. Studies on the Development and Behavior of the Dystrophic Growth Cone, the Hallmark of Regeneration Failure, in an In vitro Model of the Glial Scar and after Spinal Cord Injury.). 24-well glass coverslip were coated with poly-L-lysine and nitrocellulose, and a mixture of 700 μg/mL aggrecan (A1960 Sigma) and 10 μg/mL laminin (11243217001 Sigma) spotted on the coated coverslip. After drying, coated coverslips were then incubated with laminin at 37° C. for 3h. Purified OPCs were plated at a density of 10,000/coverslip and cultured in DMEM/F12 medium containing with N2, PDGF (20 ng/ml), FGF (20 ng/ml), NT-3 (5 ng/ml), CNTF (O1 ng/ml), Glutamine (200 mM). Coverslips were stained with CS-56 (C8035, Sigma, 1:500) and O4 antibodies (Hybridoma Core Cleveland Clinic, 1:10). O4-positive cells crossing the aggrecan border were counted for each spot. For CSPG gradient quantification, 1×10^6 OPCs were plated per well on PLL, 1 μg/mL laminin, and 2 μg/mL aggrecan coated 6-well plates. OPCs treated with vehicle, 2.5 μM ISP, or 2.5 μM SISP for 2 days at 37° C. CM was harvested and incubated with freshly made spots. Spots were incubated with CM for 2 days at 37° C. then stained with CS-56 and laminin (L9393, Sigma, 1:1000) antibodies and consistently imaged. Using ImageJ software (NIH), pixel intensities of the CS-56 or laminin spot rims were quantified using the same ROI. For cultured spinal cord explant, the spinal cords of cervical and thoracic of P1 mouse pups were chopped into 1-2 mm tissue pieces and transferred to the coverslip. Explants were cultured in DMEM/F12 medium with 15% FBS (Hyclone), O1 ng/ml PDGF (Sigma) and N2 supplement (Invitrogen). For ISP treatment, 2.5 uM ISP was added to the media at the time of plating. 25 μM GM6001 (2983, Tocris), 100 nM MMP-2 inhibitor (444244, Calbiochem), and/or 2.5 μM ISP or SISP was used.
CM was harvested from 1×10^6 OPCs incubated on PLL, 1 μg/mL laminin, and 2 μg/mL aggrecan coated 6-well plates. OPCs were treated with vehicle, 2.5 μM ISP, or 2.5 μM SISP in conjunction with 10 μg/mL Exo1 (ab120292, Abcam), or 25 μM GM6001 (364205, Calbiochem) for 2 days at 37° C. […] CM of each cell-strained group was incubated with 20 μg/mL aggrecan and/or 10 μg/mL laminin for 2 hours in lmL Eppendorf tubes at 37° C. As a positive control, OPC media was incubated with aggrecan and incubated in the same fashion. Western blots were then performed as described below with incubation against CS-56 and/or laminin antibodies.

[1] = system: oligodendrocyte progenitor cells (OPCs); assay: CSPG gradient crossing (spot) assay, OPC migration; assay type: cell-based, mouse; settings: 25 μM GM6001 or 100 nM OA-Hy, even in the presence of ISP
Experimental: as §1

[2] = system: organotypic cerebellar slice cultures; assay: LPC-induced demyelination in mouse cerebellar slice cultures; assay type: cell-based; settings: 25 μM GM6001 or 100 nM OA-Hy in conjunction with 2.5 μM ISP, 9 days
Description: We carried out the cerebellar slice culture method as described previously (Zhang, H., et al. Central nervous system remyelination in culture—A tool for multiple sclerosis research. Experimental Neurology 230, 138-148 (2011)). Briefly, 300 μm-thick cerebellar slices were cut from P10-12 mouse cerebellum using a Leica vibrating microtome (Leica, VT1000S) and cultured in medium containing 50% basal medium eagle medium, 25% Heat-inactivated horse serum, 25% Hank's solution, 2.5% glucose, 1% glutamine and penicillin-streptomycin. After 4 days in vitro (DIV), 0.5 mg/ml LPC were added for 17-18h to induce demyelination. Slices were then incubated with 2.5 μM ISP for 8 days. For GM6001 experiments, 25 μM GM6001 (Tocris) and/or 2.5 μM ISP or SISP was incubated for 9 days. Remyelination was examined by semi-quantitative Western blot of MBP and immunofluorescence stain of MBP and NeuF200.
Slices were fixed with 4% PFA, delipidated, and washed three times in PBS, blocked in PBS containing 0.1% Triton X-100 and 5% normal goat serum and incubated with anti-MBP (SMI-99P, Covance, 1:300), and anti-NeuF200 (N4142, Sigma, 1:250) antibodies overnight at 4° C. The slices were then washed in PBS and incubated in Alexa Fluor-conjugated secondary antibodies (1:500, invitrogen) for 2h. Slices were mounted in Vectashield mounting medium with DAPI (Vector Laboratories) and analyzed using Leica DFC500 fluorescence microscope.

MMP-10 = MMP-10 western blot of OPC conditioned media; assay type: cell-based, mouse; settings: OPC CM, 2.5 μM peptide, same as vehicle
Experimental: To assess MMP-2 or 10 in OPC CM or lysates, OPCs were incubated on precoated PLL, aggrecan, and laminin as described above. OPCs were treated with vehicle, 2.5 μM ISP or SISP for 2 days at 37° C. CM was then harvested and concentrated using Milipore Ultracel YM-C centrifugal filter units at max speed (Eppendorf Centrifuge […]) for 30 minutes at 4° C. […] of concentrated CM was loaded into each lane. OPC lysates were assessed using western blot techniques described below with […] protein loaded from each group. Tissue samples or cerebellar slices or purified OPC cells were homogenized with RIPA lysis buffer and protein concentration was determined by Pierce BCA protein assay kit according to the manufacture instruction (Thermo Fisher). Then, equal amounts of protein were loaded to 15% SDS-PAGE gels, and electrophoretically transferred to PVDF membranes (Millipore). The membranes were blocked in 0.1% TPBS buffer with 5% non-fat milk for 1h at room temperature and probed with indicated primary antibodies overnight at 4° C. and followed by secondary antibody conjugated to horseradish peroxidase (HRP). […] Enhanced chemiluminescence was performed with a West Pico Kit (Thermo Fisher) and detected by FluorChem E system (ProteinSimple, USA). The density of bands was quantified using ImageJ software (NIH).

[3] = system: oligodendrocyte progenitor cells (OPCs); assay: Ki-67 proliferation and TUNEL apoptosis of OPCs on aggrecan/laminin; assay type: cell-based, mouse; settings: 2.5 μM peptide, 2 div, laminin 1 and aggrecan 2 μg/mL, vs control
Experimental: To assess proliferation, OPCs were plated on 24-well coverslips that were precoated with PLL, 1 μg/mL laminin, and 2 μg/mL aggrecan. OPCs were treated with vehicle, 2.5 μM ISP or SISP immediately upon plating for 2 days at 37° C. Coverslips were fixed and stained using the same method described in the immunocytochemistry section with Ki-67 (550609, BD Pharmingen, 1:500) and O4 (1:10). Coverslips were imaged and counted. To assess apoptosis, OPCs were cultured in the same fashion and incubated with vehicle or 1 μg/mL LPC for 2 hours at 2 days following vehicle, 2.5 μM ISP or SISP incubation. Coverslips were then fixed with PFA and methanol then stained using APO-BrdU TUNEL assay kit (A23210, ThermoFisher) and guidelines with an O/N incubation of the primary antibody at RT. Coverslips were additionally costained with DAPI (D9542, Sigma, 1:10,000) then imaged and counted.

Molecule | aggrecan GAG digestion (CS56 immunoblot) (aggrecan (CS56)) | CS56 spot degradation (aggrecan (CS56); 25 μM GM6001 or 100 nM OA-Hy with 2.5 μM ISP) | OPC entry into the CSPG-rich area [1] | colocalization of MBP and neurofilament+ axons [2] | MMP-10 secretion, western blot (MMP-10) | OPC proliferation (Ki67) [3]
COC(=O)c1ccccc1NC(=O)c1ccc(F)cc1 [Exo1] | partially rescued aggrecan GAG digestion |  |  |  |  | 
CNC(=O)[C@H](Cc1c[nH]c2ccccc12)NC(=O)[C@@H](CC(=O)NO)CC(C)C [GM6001] | partially rescued | additionally rescued CS56 spot degradation | effectively halted OPC entry | decreased |  | 
GRKKRRQRRRCIREDDSLMLYALAQEKKESNMHES [SISP, scrambled ISP control peptide, reference compound] |  |  |  |  | equally low amounts | not significantly changed
